According to patent US6896895B2, “Carotenoid esters, carotenoid-enriched feeds, and methods of pigmenting foods and foodstuffs” (DSM IP Assets B.V., priority 2000, dated 2005):

What was measured:
[1] = Carotenoid ester content in plasma, back skin and abdominal fat of broilers (HPLC); type: in vivo, broiler chickens (Ross 308, Ross 508)
Method in brief: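 Ross 308/508 broilers, raised on low-carotenoid basal diet (<2 mg xanthophylls/kg) to day 15 or 22, then fed pigment-supplemented diet for three weeks; plasma sampled day 42, back skin and abdominal fat pooled per group at slaughter on day 44. Carotenoid esters quantified by normal-phase HPLC (0.5% acetone in n-hexane) calibrated with all-E ethyl β-apo-8′-carotenoate; Z-isomers corrected by factor 1.4.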

[2] = system: skin and shanks of broilers; experiment: Reflectance colorimetry and visual classification of skin and shanks of broilers; type: in vivo, broiler chickens (Ross 308, Ross 508); design: key to Shanks Visual Classification / Skin Visual Classification: −; (+); +; ++ = good color; o = orange
Method in brief: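 Ross broilers were fed a low-carotenoid basal diet (<2 mg xanthophylls/kg), then received pigment-supplemented diet for three weeks and were slaughtered on day 44. Back-skin colour (mean of three points) and shank colour (single reading) were measured by Minolta chromameter (D65, 0°) and reported as CIE L*a*b*, h* and C*, averaged over ten birds (5 male, 5 female).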

[3] = average over doses, in relation to the controls (CAROPHYLL Yellow) of the same trial, Table 3
[4] = trial MC-24/99, 20 mg/kg feed, in relation to the controls of the same trial
[5] = trial MC-24/99, 30 mg/kg feed, in relation to the controls of the same trial
[6] = dry carcasses, average over doses, Table 5
[7] = dry carcasses, trial MC-24/99, 20 mg/kg feed
[8] = dry carcasses, trial MC-24/99, 30 mg/kg feed

CCCC(C)OC(=O)C(C)=CC=CC(C)=CC=CC=C(C)C=CC=C(C)C=CC1=C(C)CCCC1(C)C (stereo not drawn) [compound (19), 2-pentyl beta-apo-8′-carotenoate]
Analytical Content as Equivalent of Ethyl β-apo-8′-carotenoate Fat % [1, 3]: 85% | Analytical Content as Equivalent of Ethyl β-apo-8′-carotenoate Plasma % [1, 3]: 88% | Analytical Content as Equivalent of Ethyl β-apo-8′-carotenoate Skin % [1, 3]: 134% | concentrations determined as equivalents of the ethyl β-apo-8′-carotenoate, in the skin ([1]; in comparison to the other 12 tested carotenoid esters): substantially higher | Analytical Content as Equivalent of Ethyl β-apo-8′-carotenoate Fat ([1]; trial MC-24/99, 20 mg/kg feed): 2.6 mg/kg | Analytical Content as Equivalent of Ethyl β-apo-8′-carotenoate Plasma ([1]; trial MC-24/99, 20 mg/kg feed): 9.6 mg/kg | Analytical Content as Equivalent of Ethyl β-apo-8′-carotenoate Skin ([1]; trial MC-24/99, 20 mg/kg feed): 3.6 mg/kg | Analytical Content as Equivalent of Ethyl β-apo-8′-carotenoate Fat % [1, 4]: 83% | Analytical Content as Equivalent of Ethyl β-apo-8′-carotenoate Plasma % [1, 4]: 93% | Analytical Content as Equivalent of Ethyl β-apo-8′-carotenoate Skin % [1, 4]: 128% | Analytical Content as Equivalent of Ethyl β-apo-8′-carotenoate Fat ([1]; trial MC-24/99, 30 mg/kg feed): 3.8 mg/kg | Analytical Content as Equivalent of Ethyl β-apo-8′-carotenoate Plasma ([1]; trial MC-24/99, 30 mg/kg feed): 13.3 mg/kg | Analytical Content as Equivalent of Ethyl β-apo-8′-carotenoate Skin ([1]; trial MC-24/99, 30 mg/kg feed): 4.8 mg/kg | Analytical Content as Equivalent of Ethyl β-apo-8′-carotenoate Fat % [1, 5]: 87% | Analytical Content as Equivalent of Ethyl β-apo-8′-carotenoate Plasma % [1, 5]: 82% | Analytical Content as Equivalent of Ethyl β-apo-8′-carotenoate Skin % [1, 5]: 139% | Shanks Chroma C*ab % of Controls [2, 6]: 105% | Shanks Color Hue h*ab % of Controls [2, 6]: 98% | Skin Chroma C*ab % of Controls [2, 6]: 106% | Skin Color Hue h*ab % of Controls [2, 6]: 97% | Shanks Chroma C*ab % of Controls [2, 7]: 108% | Shanks Chroma C*ab Value [2, 7]: 60 | Shanks Color Hue h*ab % of Controls [2, 7]: 98% | Shanks Color Hue h*ab Value [2, 7]: 82 | Shanks Visual Classification [2, 7]: + | Skin Chroma C*ab % of Controls [2, 7]: 106% | Skin Chroma C*ab Value [2, 7]: 34 | Skin Color Hue h*ab % of Controls [2, 7]: 96% | Skin Color Hue h*ab Value [2, 7]: 73 | Skin Visual Classification [2, 7]: + | Shanks Chroma C*ab % of Controls [2, 8]: 102% | Shanks Chroma C*ab Value [2, 8]: 65 | Shanks Color Hue h*ab % of Controls [2, 8]: 98% | Shanks Color Hue h*ab Value [2, 8]: 82 | Shanks Visual Classification [2, 8]: ++ | Skin Chroma C*ab % of Controls [2, 8]: 105% | Skin Chroma C*ab Value [2, 8]: 38 | Skin Color Hue h*ab % of Controls [2, 8]: 97% | Skin Color Hue h*ab Value [2, 8]: 76 | chroma C*a*b* values in the skin and in the shanks ([2]; versus the control): substantially enhanced | color hue h*a*b* in the skin and in the shanks ([2]; versus the control): not significantly changed | effectiveness in terms of concentration in the skin, and color intensity (chroma C*a*b*) in the skin and shanks ([2]; versus the control): significantly more effective
